# Values of other authors as cited in PubChem BioAssay AID1259409 (Chemical Carcinogenesis Research Information System (CCRIS), 2018).
# Several values for one entry are separate records, joined by “and”; a condition that tells them apart may be missing. Equal entries are not always repeated.
# System: rodent chemically induced tumor inhibition, incidence and multiplicity
# Test: CCRIS tumor inhibitor studies
# Conditions: Species: RAT
smiles,measurement,setting,value
C=C/C(C)=C/C=C/C(C)=C/C=C1/C(C)=CCCC1(C)C,"tumour outcome (control, treated, inhibition, significance)","Carcinogen: N-METHYL-N-NITROSOUREA, 684-93-5, Dose [Inhibitor]: 0, 67 MG/KG DIET FOR FOR 88 D BEGINNING 2 D POST CARCINOGEN DOSE (STUDY DURATION: 90 D), Route [Inhibitor]: ORAL, Strain/Sex: SPRAGUE-DAWLEY/FEMALE, Target Tissue: Type of Lesion: MAMMARY GLAND: ADENOCARCINOMA, Dose [Carcinogen]: 45 MG/KG BW ONCE, Promoter: NONE USED","100%, 93%, 7%, not significant"
same,"tumour outcome (control, treated, inhibition, significance)","Carcinogen: N-METHYL-N-NITROSOUREA, 684-93-5, Dose [Inhibitor]: 0, 134 MG/KG DIET FOR 88 D BEGINNING 2 D POST CARCINOGEN DOSE (STUDY DURATION: 90 D), Route [Inhibitor]: ORAL, Strain/Sex: SPRAGUE-DAWLEY/FEMALE, Target Tissue: Type of Lesion: MAMMARY GLAND: ADENOCARCINOMA, Dose [Carcinogen]: 45 MG/KG BW ONCE, Promoter: NONE USED","100%, 100%, 0%, not significant"
same,"tumour outcome (control, treated, inhibition, significance)","Carcinogen: N-METHYL-N-NITROSOUREA, 684-93-5, Dose [Inhibitor]: 0, 268 MG/KG DIET FOR 88 D BEGINNING 2 D POST CARCINOGEN DOSE (STUDY DURATION: 90 D), Route [Inhibitor]: ORAL, Strain/Sex: SPRAGUE-DAWLEY/FEMALE, Target Tissue: Type of Lesion: MAMMARY GLAND: ADENOCARCINOMA, Dose [Carcinogen]: 45 MG/KG BW ONCE, Promoter: NONE USED","100%, 87%, 13%, p<0.05"
same,"tumour outcome (control, treated, inhibition, significance)","Carcinogen: N-METHYL-N-NITROSOUREA, 684-93-5, Dose [Inhibitor]: 0, 536 MG/KG DIET FOR 88 D BEGINNING 2 D POST CARCINOGEN DOSE (STUDY DURATION: 90 D), Route [Inhibitor]: ORAL, Strain/Sex: SPRAGUE-DAWLEY/FEMALE, Target Tissue: Type of Lesion: MAMMARY GLAND: ADENOCARCINOMA, Dose [Carcinogen]: 45 MG/KG BW ONCE, Promoter: NONE USED","100%, 80%, 20%, p<0.05"
C#C[C@]1(O)CC[C@H]2[C@@H]3CCC4=Cc5oncc5C[C@]4(C)[C@H]3CC[C@@]21C,"tumour outcome (control, treated, inhibition, significance)","Carcinogen: 7,12-DIMETHYLBENZ[A]ANTHRACENE, 57-97-6, Dose [Inhibitor]: 0, 2 MG 6 D/WK FOR 169 D BEGINNING 5 D POST CARCINOGEN DOSE (STUDY DURATION: 174 D), Route [Inhibitor]: SUBCUTANEOUS, Strain/Sex: SPRAGUE-DAWLEY/FEMALE, Target Tissue: Type of Lesion: MAMMARY GLAND: MALIGNANT TUMORS, Dose [Carcinogen]: 20 MG IN 1 ML SESAME OIL ONCE, Promoter: NONE USED","91%, 67%, 26%, p<0.05"
CC1(C)OC(=O)C=C[C@]2(C)[C@H]3CC[C@@]4(C)[C@H](c5ccoc5)OC(=O)[C@H]5O[C@]54[C@]3(C)C(=O)C[C@@H]12,"tumour outcome (control, treated, inhibition, significance)","Carcinogen: AZOXYMETHANE, 25843-45-2, Dose [Inhibitor]: 0, 0.05% IN DIET FOR 35 WK BEGINNING 1 WK POST CARCINOGEN LAST DOSE (STUDY DURATION: 38 WK), Route [Inhibitor]: ORAL, Strain/Sex: F344/MALE, Target Tissue: Type of Lesion: COLON: ADENOCARCINOMA, Dose [Carcinogen]: 20 MG/KG BW 1/WK FOR 2 WK","18/25 (72%), 2/16 (13%), 82%, p=0.0002 and 18/25 (72%), 4/16 (25%), 65%, p=0.004"
CCCCCCC[Se]C#N,"tumour outcome (control, treated, inhibition, significance)","Carcinogen: 7,12-DIMETHYLBENZ[A]ANTHRACENE, 57-97-6, Dose [Inhibitor]: 0.1, 2 PPM (SELENIUM) IN DIET FOR 3 WK BEGINNING 2 WK PRIOR TO CARCINOGEN DOSE (STUDY DURATION: 25 WK), Route [Inhibitor]: ORAL, Strain/Sex: SPRAGUE-DAWLEY/FEMALE, Target Tissue: Type of Lesion: MAMMARY GLAND: TUMOR, Dose [Carcinogen]: 10 MG ONCE, Promoter: NONE USED","25/30 (83%), 11/30 (37%), 55%, p<0.05"
